Measurements: article PMC6588697, “Lugdunin amplifies innate immune responses in the skin in synergy with host- and microbiota-derived factors” (Nature Communications, 2019)
Where “and” joins values, the source holds several entries; their conditions need not be identical. Equal entries are not always repeated.

Experiments:
mouse skin = experiment: Immunohistochemistry of mouse skin sections (LL-37, MIP-2, MPO); type: in vivo
Method: For immunohistochemical stainings of mouse skin, […] tissue sections were de-paraffinized. For MPO staining, antigen retrieval was performed in EDTA buffer at pH 9 (Thermo Fisher Scientific) for 5 min, and for MIP-2 and LL-37, citrate buffer at pH 6 for 9 min was used. Antigen retrieval was performed in a pressure cooker before a slow cooling down of the samples in the buffer. Afterwards, tissue sections were washed in PBS and blocked in 5% donkey serum in PBS containing 0.05% Triton X-100 for 90 min. For MPO staining, tissue sections were subsequently incubated overnight at 4 °C in a humid chamber with a MPO-specific antibody (R&D Systems, Cat#AF3667) diluted 1:50 in a blocking buffer. For MIP-2 and LL-37 staining, tissue sections were first incubated with primary enhancer (Lab Vision™ UltraVision™ LP Detection System, Thermo Fisher Scientific) for 20 min at room temperature, washed, and then incubated with AP polymer (Lab Vision™ UltraVision™ LP Detection System, Thermo Fisher Scientific) for 30 min at room temperature in a humid chamber, followed by incubation with the primary antibodies MIP-2 (Thermo Scientific, Cat#701126, 1:10 in blocking buffer) and LL-37 (Novus Biologicals, Cat#NB100-98689, 1:200 in blocking buffer) overnight at 4 °C in a humid chamber. The next day, tissue sections were washed and incubated with a 1:250 dilution of alkaline phosphatase-coupled secondary antibody (Novus Biologicals) for 90 min in a humid chamber at room temperature. After washing in PBS, staining was performed by using the Lab Vision^TM liquid fast red substrate system (Thermo Fisher Scientific) according to the manufacturer’s instructions. After washing in water, hematoxylin–eosin staining (Agilent/Dako) was performed for 2 min. After another washing step in water, tissue sections were mounted with Kaiser’s glycerol gelatine (Merck).

HEK293-TLR2 cells = experiment: CXCL8 expression in HEK-TLR2 cells (qRT-PCR); type: cell-based, human; conditions: 5 h, two technical replicates, Fig 2b
Method: Fig. 2 Induction of chemokine (C-X-C motif) ligand 8/macrophage inflammatory protein-2 (CXCL8/MIP-2) by lugdunin is TLR2/MyD88-dependent. a HEK-control or HEK-TLR2 cells were treated with 2 μM lugdunin for 5 h and subsequently the CXCL8 concentration in the supernatant was analyzed by LEGENDplex^TM (BioLegend). Shown is one representative experiment of three independent experiments with two technical replicates ± s.e.m. b HEK-control or HEK-TLR2 cells were treated with increasing concentrations of lugdunin for 5 h and subsequently expression of CXCL8 was analyzed and normalized to actin. Shown is one representative experiment of three independent experiments with two technical replicates ± s.e.m. c Schematic overview of the mouse experiments: 6–8-week-old female C5BL/6 WT, MyD88-knockout (ko), or 5xTLR-ko mice were epicutaneously treated with 1.5 µg lugdunin or phosphate-buffered saline (PBS) as a control. After 24 h, mice were euthanized, 4 mm skin punches were taken, and further cultured in vitro for 10 h followed by cytokine analysis of the culture supernatant by LEGENDplex^TM (BioLegend). d, e Shown are the mean concentrations of IL-1α (d) or MIP-2 (e) in the skin culture supernatant of two skin punches from four mice each ± s.e.m. Significant differences to control treatments were analyzed by an unpaired two-tailed t test (*P < 0.05; **P < 0.01; ***P < 0.001). f Representative MIP-2-stained paraffin-embedded mouse skin sections. Scale bar, 100 µM. Source data are provided as a Source Data file
Quantitative reverse transcription-polymerase chain reaction (qRT-PCR) was performed in 10 µL reaction volume with SYBR^TM Green PCR Master Mix (Thermo Fisher) according to the manufacturer’s instructions using a LightCycler 96 (Roche Life Science). The initial denaturation step was at 95 °C for 5 min, followed by 40 cycles with 10 s each for the denaturation step at 95 °C, the annealing at individual temperature, and the elongation at 72 °C. Primer sequences and respective annealing temperatures are listed in Supplementary Table 1. […]

Substance: Lugdunin
- MPO-positive cells in mouse skin sections (IHC, in words) (mouse skin; epicutaneous application, Fig 3e): recruitment of MPO-positive cells into the dermis
- LL-37 in mouse skin sections (IHC, in words) (mouse skin; epicutaneous application, Supp Fig 1): expression of LL-37 in keratinocytes was confirmed
- MIP-2 in mouse skin sections (IHC, in words) (mouse skin; epicutaneous treatment, Fig 2f): MIP-2 production by keratinocytes in the epidermis and the hair follicles
- CXCL8 expression normalized to actin (HEK293-TLR2 cells; HEK-TLR2, lugdunin 0.5 µM, medium = 1): 2.676 and 2.042
- CXCL8 expression normalized to actin (HEK293-TLR2 cells; HEK-TLR2, lugdunin 1 µM): 1.404 and 1.257
- CXCL8 expression normalized to actin (HEK293-TLR2 cells; HEK-TLR2, lugdunin 2 µM): 3.918 and 4.112
- CXCL8 expression normalized to actin (HEK293-TLR2 cells; HEK-TLR2, lugdunin 3 µM): 4.408 and 3.864
- CXCL8 expression normalized to actin (HEK293-TLR2 cells; HEK-TLR2, lugdunin 5 µM): 6.364 and 6.916
- CXCL8 expression normalized to actin (HEK293-TLR2 cells; HEK-TLR2, lugdunin 10 µM): 9.415 and 10.232
